ChEMBL document CHEMBL1201862, “PubChem BioAssay data set” (2004)
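Each compound was tested at five concentrations against cells in 96-well plates for 48 hours. The concentration for 50% growth inhibition is given as GI50.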 The source made the active and inactive calls. Cut-off read from the data, not from the text of the source: active = GI50 up to about 1.1 µM and inactive = higher.

Key:
Test in all cases: NCI anticancer screen, dose series, 48 h
[1] = tested on: NCI-H460
[2] = tested on: HCC 2998
[3] = tested on: TK-10
[4] = tested on: SNB-75
[5] = tested on: OVCAR-8
[6] = tested on: UACC-62
[7] = tested on: SK-MEL-5
[8] = tested on: HL-60
[9] = tested on: T47D
[10] = tested on: NCI-H522
[11] = tested on: 786-0
[12] = tested on: EKVX
[13] = tested on: PC-3
[14] = tested on: ACHN
[15] = tested on: SW-620
[16] = tested on: OVCAR-4
[17] = tested on: UO-31
[18] = tested on: Hs-578T
[19] = tested on: U-251
[20] = tested on: BT-549

Measured: GI50

CC(NC1=NCCO1)c1cccc([N+](=O)[O-])c1 (stereo unspecified)
inactive: [1] > 100 µM | [2] > 100 µM | [3] > 100 µM | [4] > 100 µM | [5] > 100 µM | [6] > 100 µM | [7] > 100 µM | [8] > 100 µM | [9] > 100 µM | [10] > 100 µM | [11] > 100 µM | [12] > 100 µM | [13] > 100 µM | [14] > 100 µM | [15] > 100 µM | [16] > 100 µM | [17] > 100 µM | [18] > 100 µM | [19] > 100 µM

COC(=N)CCCl
inactive: [1] > 100 µM | [2] > 100 µM | [3] > 100 µM | [4] 83.2 µM | [5] > 100 µM | [6] > 100 µM | [7] > 100 µM | [8] > 100 µM | [10] 99.1 µM | [11] > 100 µM | [12] > 100 µM | [13] > 100 µM | [14] > 100 µM | [15] > 100 µM | [16] > 100 µM | [17] > 100 µM | [19] > 100 µM | [20] > 100 µM

Clc1nss/c1=N/c1nonc1-c1ccccc1
inactive: [1] > 100 µM | [2] > 100 µM | [4] 23.2 µM | [5] 28.6 µM | [6] 33.3 µM | [7] 20.3 µM | [8] 3.62 µM | [10] 18.3 µM | [11] 30.5 µM | [12] 37.4 µM | [13] 38.3 µM | [14] 18.6 µM | [15] 41.6 µM | [16] 49.9 µM | [17] 17.6 µM | [19] 41.1 µM | [20] 29.6 µM

CCn1c(-c2ccccc2)cs/c1=N\C(P(=O)(O)O)P(=O)(O)O
inactive: [1] > 100 µM | [2] > 100 µM | [3] > 100 µM | [4] > 100 µM | [5] > 100 µM | [6] > 100 µM | [7] > 100 µM | [8] > 100 µM | [10] > 100 µM | [11] > 100 µM | [12] > 100 µM | [13] > 100 µM | [14] > 100 µM | [15] > 100 µM | [17] > 100 µM | [18] > 100 µM | [19] > 100 µM | [20] > 100 µM

O=C(Cn1c2ccc(Br)cc2c2nc3ccccc3nc21)N/N=C/c1ccccc1
inactive: [3] > 100 µM | [4] 83.9 µM | [5] > 100 µM | [6] 72.9 µM | [7] > 100 µM | [9] > 100 µM | [11] 12.3 µM | [12] > 100 µM | [13] > 100 µM | [14] > 100 µM | [15] > 100 µM | [17] > 100 µM | [19] 85.7 µM | [20] > 100 µM

CN(C)C(=O)Oc1ccc(-c2cn3cc(NC(=O)c4ccccc4)ccc3n2)cc1
inactive: [1] 73.3 µM | [2] 52 µM | [3] > 100 µM | [4] 86.1 µM | [5] > 100 µM | [6] > 100 µM | [7] 21.4 µM | [9] 21.6 µM | [10] 26.4 µM | [11] > 100 µM | [12] > 100 µM | [13] > 100 µM | [14] > 100 µM | [15] 48.5 µM | [16] 55 µM | [17] > 100 µM | [19] 45.3 µM | [20] 80.4 µM

CCSCCCN(CCCSCC)CCCSCC
inactive: [1] > 100 µM | [2] > 100 µM | [4] > 100 µM | [5] > 100 µM | [6] > 100 µM | [7] > 100 µM | [8] 80.9 µM | [9] > 100 µM | [10] 45.8 µM | [11] > 100 µM | [13] > 100 µM | [15] > 100 µM | [16] > 100 µM | [17] > 100 µM | [19] > 100 µM | [20] > 100 µM

CCOC(=O)C(NC(=O)NC(C(=O)OCC)C(=O)OCC)C(=O)OCC
inactive: [1] > 100 µM | [2] > 100 µM | [3] > 100 µM | [5] > 100 µM | [6] > 100 µM | [7] > 100 µM | [10] > 100 µM | [11] > 100 µM | [12] > 100 µM | [13] > 100 µM | [14] > 100 µM | [15] > 100 µM | [17] > 100 µM | [18] > 100 µM | [19] > 100 µM | [20] > 100 µM
